Results published in patent US20060246106A1, “Infection resistant medical implants” (priority 2005, published 2006).
Values after ≈ are worked out from the molar mass of the structure shown. Read-outs that look alike come from different tables or passages of the source.

Legend:
[1] = elution rate: rifampicin/tobramycin content remaining on the graft; format: in vivo; conditions: graft harvested from dog, one line per dog; for concentration at 7 days / concentration at 14 days / concentration at 21 days: dog, explanted graft, other: graft implanted end to end in the infrarenal aorta
Description: Two grafts were harvested after week 1, two grafts after week 2 and the final two grafts were harvested after week 3. Immediately after harvesting, the grafts were prepared for antibiotic analysis. […] The graft samples required the rifampicin to be extracted from the graft material. The extraction procedure was as follows. A volume of methanol equivalent to 3 times the dry weight of the graft was added. […] The supernatant was then injected directly into the HPLC. […] The graft samples required the tobramycin to be extracted from the graft material. The extraction procedure was as follows. […] The supernatant was then injected directly into the PFIA. The extraction was repeated on the same graft sample to ensure that all the tobramycin had been extracted.

Escherichia coli = experiment: MIC/MBC, antibiotic dilutions in Mueller-Hinton Broth; format: cell-based; conditions: E. coli, antibiotic alone
Description: The term “MIC” refers to the lowest concentration of antibiotic that inhibits in vitro bacterial growth. The term “MBC” refers to the lowest concentration of antibiotic that totally kills 99.9% of the inoculum. The principle of the test is to add dilutions of an antibiotic to Mueller-Hinton Broth and a standard concentration of the inoculum. Tubes are incubated overnight and read visually for turbidity. The lowest concentration showing no visible growth is the MIC. To establish the MBC broth cultures showing no visible growth are sub-cultured onto appropriate agar and incubated to determine if the organism has been killed.

[2] = dog, in vivo
Description: (§1) Serum samples were collected from the dogs at the same time as the samples for liver and kidney function tests.
(§2) The analytical method for graft samples and serum samples was identical. The method used a HPLC system with a Hypersil 5 ODS column with UV detection at a wavelength of 254 nm. The mobile phase used was a 70:30 0.2M phosphate buffer pH 6.0: acetonitrile. The limit of detection for this method is 0.1 mg/Kg graft or 0.1 mg/litre serum.
(§3) These samples were mixed 50:50 with methanol and left to stand for 1 minute. After this time the solution was centrifuged for 5 minutes at maximum speed in a Microcentaur centrifuge. The supernatant was then used for analysis.
(§4) The analytical method for serum samples and graft samples was identical. The technique used to measure the tobramycin was Polarisation FluoroImmuno Assay (PFIA) using an Abbott FLX instrument using the reverse dilution protocol with a sample volume of 5 μl. The limit of detection for this method is 0.4 mg/Kg graft or 0.4 mg/litre serum.
(§5) The serum samples were analysed directly using the Abbot FLX instrument.

in vivo = conditions: dog
Description: as §1, §2, §3, §4, §5

**Q.** With `NC[C@H]1O[C@H](O[C@H]2[C@H](O)[C@@H](O[C@H]3O[C@H](CO)[C@@H](O)[C@H](N)[C@H]3O)[C@H](N)C[C@@H]2N)[C@H](N)C[C@@H]1O` [Tobramycin, tobramycin] as the molecule, how does the concentration at 7 days ([1]; Implant Duration 7 Days, read-out: Tobramycin Content, 1st Extraction) read?
**A.** Its concentration at 7 days is 4800 ng/g.

**Q.** What about the concentration at 7 days ([1]; Implant Duration 7 Days, read-out: Tobramycin Content, 2nd Extraction) of the same molecule?
**A.** The concentration at 7 days was < 400 ng/g.

**Q.** And the concentration at 7 days ([1]; Implant Duration 7 Days, read-out: Tobramycin Content, Total)?
**A.** Its concentration at 7 days is 4800 ng/g.

**Q.** And the concentration at 14 days ([1]; Implant Duration 14 Days, read-out: Tobramycin Content, 1st Extraction)?
**A.** The concentration at 14 days was 510 ng/g.

**Q.** What about the concentration at 14 days ([1]; Implant Duration 14 Days, read-out: Tobramycin Content, 2nd Extraction) of the same molecule?
**A.** The concentration at 14 days was < 400 ng/g.

**Q.** What about the concentration at 14 days ([1]; Implant Duration 14 Days, read-out: Tobramycin Content, Total) of the same molecule?
**A.** Its concentration at 14 days is 510 ng/g.

**Q.** And the concentration at 21 days ([1]; Implant Duration 21 Days, read-out: Tobramycin Content, 1st Extraction)?
**A.** The concentration at 21 days was < 400 ng/g.

**Q.** And the concentration at 21 days ([1]; Implant Duration 21 Days, read-out: Tobramycin Content, 2nd Extraction)?
**A.** Its concentration at 21 days is < 400 ng/g.

**Q.** And the concentration at 21 days ([1]; Implant Duration 21 Days, read-out: Tobramycin Content, Total)?
**A.** Its concentration at 21 days is < 400 ng/g.

**Q.** And the “Tobramycin Content, 1st Extraction” value ([1]; Implant Duration 7 Days)?
**A.** Its value is 3.96 mg/Kg graft.

**Q.** And the “Tobramycin Content, 2nd Extraction” value ([1]; Implant Duration 7 Days)?
**A.** The value was <0.4 mg/Kg graft.

**Q.** And the “Tobramycin Content, Total” value ([1]; Implant Duration 7 Days)?
**A.** The value was 3.96 mg/Kg graft.

**Q.** What about the “Tobramycin Content, 1st Extraction” value ([1]; Implant Duration 14 Days) of the same molecule?
**A.** The value was <0.4 mg/Kg graft.

**Q.** And the “Tobramycin Content, 2nd Extraction” value ([1]; Implant Duration 14 Days)?
**A.** Its value is <0.4 mg/Kg graft.

**Q.** What about the “Tobramycin Content, Total” value ([1]; Implant Duration 14 Days) of the same molecule?
**A.** Its value is <0.4 mg/Kg graft.

**Q.** What about the “Tobramycin Content, 1st Extraction” value ([1]; Implant Duration 21 Days) of the same molecule?
**A.** The value was <0.4 mg/Kg graft.

**Q.** And the “Tobramycin Content, 2nd Extraction” value ([1]; Implant Duration 21 Days)?
**A.** The value was <0.4 mg/Kg graft.

**Q.** And the “Tobramycin Content, Total” value ([1]; Implant Duration 21 Days)?
**A.** Its value is <0.4 mg/Kg graft.

**Q.** And the MBC (Escherichia coli)?
**A.** The MBC was 6.25 µg/mL (≈ 13.4 µM).

**Q.** And the MIC (Escherichia coli)?
**A.** Its MIC is 3.12 µg/mL (≈ 6.67 µM).

**Q.** What about the “tobramycin present in the serum of the test dogs” value [2] of the same molecule?
**A.** The value was “no detectable amount”.

**Q.** And the “Tobramycin Content (serum)” value ([2]; 1 day)?
**A.** The value was <0.4 mg/litre serum.

**Q.** And the “Tobramycin Content (serum)” value ([2]; 3 day)?
**A.** Its value is <0.4 mg/litre serum.

**Q.** What about the “Tobramycin Content (serum)” value ([2]; 7 day) of the same molecule?
**A.** Its value is <0.4 mg/litre serum.

**Q.** What about the “Tobramycin Content (serum)” value ([2]; 14 day) of the same molecule?
**A.** Its value is <0.4 mg/litre serum.

**Q.** What about the “Tobramycin Content (serum)” value ([2]; 21 day) of the same molecule?
**A.** The value was <0.4 mg/litre serum.

**Q.** And the concentration at 1 day (in vivo)?
**A.** Its concentration at 1 day is < 400 ng/mL.

**Q.** What about the concentration at 3 day (in vivo) of the same molecule?
**A.** Its concentration at 3 day is < 400 ng/mL.

**Q.** And the concentration at 7 day (in vivo)?
**A.** Its concentration at 7 day is < 400 ng/mL.

**Q.** What about the concentration at 14 day (in vivo) of the same molecule?
**A.** The concentration at 14 day was < 400 ng/mL.

**Q.** What about the concentration at 21 day (in vivo) of the same molecule?
**A.** The concentration at 21 day was < 400 ng/mL.

**Q.** With `CO[C@H]1/C=C/O[C@@]2(C)Oc3c(C)c(O)c4c(O)c(c(/C=N/N5CCN(C)CC5)c(O)c4c3C2=O)NC(=O)/C(C)=C\C=C\[C@H](C)[C@H](O)[C@@H](C)[C@@H](O)[C@@H](C)[C@H](OC(C)=O)[C@@H]1C` [Rifampicin, rifampicin] as the molecule, how does the concentration at 7 days ([1]; Implant Duration 7 Days, read-out: Rifampicin Content, 1st Extraction) read?
**A.** The concentration at 7 days was 890 ng/g.

**Q.** And the concentration at 7 days ([1]; Implant Duration 7 Days, read-out: Rifampicin Content, 2nd Extraction)?
**A.** The concentration at 7 days was < 100 ng/g.

**Q.** What about the concentration at 7 days ([1]; Implant Duration 7 Days, read-out: Rifampicin Content, Total) of the same molecule?
**A.** Its concentration at 7 days is 890 ng/g.

**Q.** What about the concentration at 14 days ([1]; Implant Duration 14 Days, read-out: Rifampicin Content, 1st Extraction) of the same molecule?
**A.** Its concentration at 14 days is 730 ng/g.

**Q.** And the concentration at 14 days ([1]; Implant Duration 14 Days, read-out: Rifampicin Content, 2nd Extraction)?
**A.** The concentration at 14 days was < 100 ng/g.

**Q.** And the concentration at 14 days ([1]; Implant Duration 14 Days, read-out: Rifampicin Content, Total)?
**A.** Its concentration at 14 days is 730 ng/g.

**Q.** And the concentration at 21 days ([1]; Implant Duration 21 Days, read-out: Rifampicin Content, 1st Extraction)?
**A.** Its concentration at 21 days is 340 ng/g.

**Q.** What about the concentration at 21 days ([1]; Implant Duration 21 Days, read-out: Rifampicin Content, 2nd Extraction) of the same molecule?
**A.** Its concentration at 21 days is < 100 ng/g.

**Q.** What about the concentration at 21 days ([1]; Implant Duration 21 Days, read-out: Rifampicin Content, Total) of the same molecule?
**A.** Its concentration at 21 days is 340 ng/g.

**Q.** And the “Rifampicin Content, 1st Extraction” value ([1]; Implant Duration 7 Days)?
**A.** Its value is 0.94 mg/Kg graft.

**Q.** And the “Rifampicin Content, 2nd Extraction” value ([1]; Implant Duration 7 Days)?
**A.** Its value is <0.1 mg/Kg graft.

**Q.** And the “Rifampicin Content, Total” value ([1]; Implant Duration 7 Days)?
**A.** Its value is 0.94 mg/Kg graft.

**Q.** What about the “Rifampicin Content, 1st Extraction” value ([1]; Implant Duration 14 Days) of the same molecule?
**A.** The value was 1.24 mg/Kg graft.

**Q.** What about the “Rifampicin Content, 2nd Extraction” value ([1]; Implant Duration 14 Days) of the same molecule?
**A.** The value was <0.1 mg/Kg graft.

**Q.** And the “Rifampicin Content, Total” value ([1]; Implant Duration 14 Days)?
**A.** The value was 1.24 mg/Kg graft.

**Q.** What about the “Rifampicin Content, 1st Extraction” value ([1]; Implant Duration 21 Days) of the same molecule?
**A.** Its value is 0.52 mg/Kg graft.

**Q.** And the “Rifampicin Content, 2nd Extraction” value ([1]; Implant Duration 21 Days)?
**A.** Its value is <0.1 mg/Kg graft.

**Q.** And the “Rifampicin Content, Total” value ([1]; Implant Duration 21 Days)?
**A.** Its value is 0.52 mg/Kg graft.

**Q.** What about the MBC (Escherichia coli) of the same molecule?
**A.** Its MBC is 32.5 µg/mL (≈ 39.5 µM).

**Q.** What about the MIC (Escherichia coli) of the same molecule?
**A.** The MIC was 16.2 µg/mL (≈ 19.7 µM).

**Q.** What about the “quantity of rifampicin equated to an average human” value ([2]; 1 day) of the same molecule?
**A.** The value was 1.15 mg.

**Q.** What about the concentration at 1 day (in vivo) of the same molecule?
**A.** The concentration at 1 day was 230 ng/mL.

**Q.** What about the concentration at 3 day (in vivo) of the same molecule?
**A.** The concentration at 3 day was < 100 ng/mL.

**Q.** And the concentration at 7 day (in vivo)?
**A.** The concentration at 7 day was < 100 ng/mL.

**Q.** What about the concentration at 14 day (in vivo) of the same molecule?
**A.** The concentration at 14 day was < 100 ng/mL.

**Q.** What about the concentration at 21 day (in vivo) of the same molecule?
**A.** Its concentration at 21 day is < 100 ng/mL.
